Experimental data as given in the supplement of paper PMC10307832.

How the values were obtained:
Test in all cases: relative viability (nuclei count vs DMSO), 5 days (fraction); higher = more cells survive
[1] = compound: CN1CCN(CC1)C2=CC(=C(C=C2)NC3=NC=C4C(=N3)N(C5=CC=CC=C5C(=O)N4C)C)OC [XMD8-85] + Nc1ncn([C@H]2C[C@H](O)[C@@H](CO)O2)c(=O)n1 [Decitabine] (partner 2 µM)
Summary of the method: (§1)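 Values are medians from duplicate plates. Each reflects relative viability, defined as the nuclei count of treated wells over that of vehicle wells. Lung cancer cell lines in 1536-well plates were pin-tool dosed one day after seeding with one drug alone or with a fixed anchor-drug dose plus five library-drug doses (not always all listed) in √10 steps, then fixed, stained and imaged at 4× after 5 days.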

[2] = compound: O=C(O)C(Cc1ccccc1[N+](=O)[O-])=NNc1nc(-c2ccc(Cl)c(Cl)c2)cs1 (mixture of isomers) [4EGI-1] + CC1(C)CCC(c2ccc(Cl)cc2)=C(CN2CCN(c3ccc(C(=O)NS(=O)(=O)c4ccc(N[C@H](CCN5CCOCC5)CSc5ccccc5)c(S(=O)(=O)C(F)(F)F)c4)cc3)CC2)C1 [Navitoclax] (partner 0.5 µM)
Summary of the method: as §1

[3] = compound: CN1CCN(CC1)C2=CC(=C(C=C2)NC3=NC=C4C(=N3)N(C5=CC=CC=C5C(=O)N4C)C)OC [XMD8-85] + CC(=O)Nc1cccc(-n2c(=O)n(C3CC3)c(=O)c3c(Nc4ccc(I)cc4F)n(C)c(=O)c(C)c32)c1 [Trametinib] (partner 0.02 µM)
Summary of the method: as §1

[4] = compound: CN1CCN(CC1)C2=CC(=C(C=C2)NC3=NC=C4C(=N3)N(C5=CC=CC=C5C(=O)N4C)C)OC [XMD8-85] + N=C(N)NC(=N)NCCc1ccccc1 [Phenformin] (partner 250 µM)
Summary of the method: as §1

Row | Cell Line | relative viability ([1]; first compound 0.08 µM) | relative viability ([1]; first compound 0.253 µM) | relative viability ([1]; first compound 0.8 µM) | relative viability ([1]; first compound 2.53 µM) | relative viability ([1]; first compound 8 µM) | relative viability ([2]; first compound 0.5 µM) | relative viability ([2]; first compound 1.581 µM) | relative viability ([2]; first compound 5 µM) | relative viability ([2]; first compound 15.81 µM) | relative viability ([2]; first compound 50 µM) | relative viability ([3]; first compound 0.08 µM) | relative viability ([3]; first compound 0.253 µM) | relative viability ([3]; first compound 0.8 µM) | relative viability ([3]; first compound 2.53 µM) | relative viability ([3]; first compound 8 µM) | relative viability ([4]; first compound 0.08 µM) | relative viability ([4]; first compound 0.253 µM) | relative viability ([4]; first compound 0.8 µM) | relative viability ([4]; first compound 2.53 µM) | relative viability ([4]; first compound 8 µM)
1 | LXF-289 | 0.409 | 0.371 | 0.369 | 0.423 | 0.352 | 1.01 | 0.933 | 0.983 | 0.915 | 0.784 | 0.658 | 0.646 | 0.696 | 0.728 | 0.656 | 0.524 | 0.542 | 0.525 | 0.553 | –
2 | NCI-H23 | 0.306 | 0.316 | 0.349 | 0.32 | 0.267 | 1.12 | – | 0.947 | 0.883 | 0.708 | 0.419 | 0.402 | 0.369 | 0.28 | 0.24 | 0.797 | 0.791 | 0.806 | 0.694 | 0.774
3 | NCI-H322M | 0.688 | 0.659 | 0.707 | 0.644 | 0.606 | 1.21 | 1.18 | 1.16 | 1.17 | 1.41 | 0.534 | 0.5 | 0.44 | 0.418 | 0.455 | 0.74 | – | 0.749 | 0.819 | 0.479
4 | NCI-H441 | 0.256 | 0.245 | 0.256 | 0.261 | 0.205 | 0.467 | 0.552 | 0.449 | 0.511 | 0.203 | 0.4 | 0.427 | 0.463 | 0.494 | 0.234 | 0.954 | 0.689 | 0.81 | 1.12 | 0.571
5 | NCI-H460 | 0.442 | 0.506 | 0.503 | 0.566 | 0.396 | 1.22 | – | 1.16 | 0.701 | 0.0476 | 0.176 | 0.122 | 0.2 | 0.133 | 0.055 | 0.377 | 0.59 | 0.545 | 0.578 | 0.1
6 | NCI-H520 | – | 0.506 | 0.496 | 0.528 | 0.429 | 1.23 | 1.11 | 1.14 | 1.02 | 0.431 | – | 0.728 | 0.689 | 0.604 | 0.496 | 0.574 | 0.6 | 0.557 | 0.543 | 0.446
7 | NCI-H596 | 0.941 | 1.01 | – | 2 | 0.873 | 0.956 | 0.708 | 0.86 | 0.869 | 0.805 | 0.866 | 0.72 | 0.675 | 0.769 | 0.696 | 0.571 | 0.749 | 0.636 | 0.709 | 0.8
8 | NCI-H647 | 0.43 | 0.357 | 0.417 | 0.45 | 0.327 | 1.27 | – | 1.12 | 0.995 | 0.307 | 0.478 | 0.486 | 0.485 | 0.465 | 0.28 | 0.258 | 0.522 | 0.528 | 0.465 | 0.307
9 | NCI-H727 | 0.867 | 1.04 | 0.84 | 0.894 | 0.643 | 0.434 | 0.519 | 0.427 | 0.257 | 0.204 | 0.373 | 0.375 | 0.405 | 0.37 | 0.368 | 0.503 | 0.547 | 0.523 | 0.524 | 0.456
10 | NCI-H838 | 0.572 | 0.46 | 0.476 | 0.449 | 0.354 | 1.24 | – | 1.26 | 1.04 | 0.218 | 0.529 | 0.48 | 0.516 | 0.617 | 0.334 | 0.528 | 0.553 | 0.604 | 0.617 | 0.283
11 | NCI-H1355 | 0.359 | 0.308 | 0.345 | 0.355 | 0.329 | 1.07 | 0.95 | 0.841 | 0.644 | 0.677 | 0.414 | 0.424 | 0.384 | 0.356 | 0.284 | 0.417 | 0.409 | 0.422 | 0.437 | 0.408
12 | NCI-H1395 | 0.609 | 0.762 | 0.722 | 0.701 | 0.716 | 1.38 | – | 1.27 | 1.09 | 0.566 | 0.832 | 1.08 | 0.995 | 1.04 | 0.829 | 0.483 | 0.421 | 0.447 | 0.414 | 0.409
13 | NCI-H1437 | 0.641 | 0.534 | 0.596 | – | 0.501 | 1.19 | 1 | 1.04 | 0.395 | 0.178 | 0.547 | 0.487 | 0.491 | 0.594 | 0.308 | – | 0.299 | 0.338 | 0.329 | 0.268
14 | NCI-H1650 | 0.539 | 0.414 | 0.487 | 0.374 | 0.371 | 1.23 | – | 0.932 | 0.354 | 0.286 | 0.629 | 0.539 | 0.784 | 0.426 | 0.36 | 0.411 | 0.449 | 0.401 | 0.36 | 0.178
15 | NCI-H1651 | 0.595 | 0.592 | 0.601 | 0.67 | 0.506 | 1.17 | 0.914 | 0.965 | 1.01 | 0.33 | 0.842 | 0.886 | 0.739 | 0.76 | 0.716 | 0.349 | 0.312 | 0.265 | 0.366 | 0.298
16 | NCI-H1666 | 0.703 | 0.724 | – | 0.692 | 0.68 | 1.14 | 1.05 | 1.31 | 0.833 | 0.248 | 0.918 | 0.868 | 0.852 | 0.947 | 0.794 | 0.578 | 0.601 | 0.574 | 0.567 | 0.576
17 | NCI-H1734 | – | 0.519 | 0.528 | 0.591 | 0.464 | 0.931 | 0.901 | 0.96 | 0.851 | 0.492 | 0.654 | 0.712 | 0.704 | 0.604 | 0.519 | 0.397 | 0.331 | 0.369 | 0.382 | 0.348
18 | NCI-H1755 | 0.754 | 0.677 | 0.714 | 0.764 | 0.724 | 1.02 | 0.995 | 0.949 | 0.86 | 0.833 | 0.801 | 0.857 | 0.745 | 0.876 | 0.758 | 0.608 | 0.65 | 0.429 | 0.581 | 0.495
19 | NCI-H1793 | – | 0.473 | 0.482 | 0.575 | 0.583 | 0.676 | 0.49 | 0.463 | 0.54 | 0.388 | – | 0.483 | 0.37 | 0.481 | 0.442 | 0.402 | 0.409 | 0.38 | 0.375 | 0.317
20 | NCI-H1915 | 0.279 | 0.262 | 0.838 | 0.563 | 0.253 | 0.825 | 0.606 | 0.797 | 0.754 | 0.596 | 0.328 | 0.309 | 0.251 | 0.478 | 0.282 | 0.359 | 0.349 | 0.377 | 0.354 | 0.348
21 | NCI-H1944 | 0.451 | 0.404 | 0.462 | 0.456 | 0.422 | 1.19 | – | 1.07 | 0.969 | 0.94 | 0.388 | 0.453 | 0.462 | 0.462 | 0.369 | 0.186 | 0.195 | 0.228 | 0.207 | 0.151
22 | NCI-H1975 | 0.392 | 0.359 | 0.382 | 0.328 | 0.35 | 1.2 | 1.05 | 0.984 | 1.08 | 1.18 | 0.37 | 0.376 | 0.334 | 0.361 | 0.268 | 0.402 | 0.409 | 0.446 | 0.464 | 0.312
23 | NCI-H1993 | 0.543 | 0.555 | 0.585 | 0.561 | 0.57 | 0.952 | 0.895 | 0.77 | 0.7 | 0.483 | 0.484 | 0.436 | 0.537 | 0.494 | 0.381 | 0.565 | 0.64 | 0.512 | 0.436 | 0.495
24 | NCI-H2009 | 0.42 | 0.371 | 0.414 | 0.417 | 0.255 | 1.19 | 1.21 | 1.22 | 1.11 | 0.17 | 0.26 | 0.237 | 0.261 | 0.253 | 0.18 | 0.496 | 0.504 | 0.496 | 0.42 | 0.306
25 | NCI-H2023 | 0.176 | 0.198 | 0.25 | 0.244 | 0.227 | 1 | – | 0.989 | 0.626 | 0.175 | 0.515 | 0.535 | 0.685 | 0.557 | 0.284 | 0.347 | 0.398 | 0.422 | 0.355 | 0.327
26 | NCI-H2085 | 0.546 | 0.529 | 0.538 | 0.535 | 0.517 | 1.19 | 1.01 | 1.2 | 0.931 | 0.743 | 0.651 | 0.469 | 0.427 | 0.514 | 0.355 | 0.805 | 0.734 | 0.752 | 0.626 | 0.516
27 | NCI-H2087 | 0.311 | 0.262 | 0.297 | 0.32 | 0.195 | 1.08 | 0.883 | 0.999 | 0.647 | 0.218 | 0.17 | 0.203 | 0.19 | 0.19 | 0.172 | 0.495 | 0.441 | 0.562 | 0.396 | 0.389
